Measurements reported in US4954637A, “Certain maleimide-N-alkylenecarboxylate-ortho-nitrobenzenesulfonic acid esters and derivatives useful for coupling biological materials” (Cetus Corporation, priority 1987, dated 1990).
Where two headings read alike, the source gives them in different places.

How the values were obtained:
[1] = system: cells; conditions: vs biotin-p-nitrophenyl ester; fluoresceinated avidin; cited from earlier work
[2] = system: polylysine; conditions: over a 5 minute period; pH 7.4, room temperature
Method: A total of 25 mg (0.34 μmoles) of polylysine obtained from Sigma Chemical Co. (Sigma) was succinylated to approximately 20 amines remaining unsuccinylated per polylysine molecule, and redissolved in 0.5 ml of 0.1M phosphate buffer at pH 7.4 to yield an amine concentration of 1.0×10^-2 M. Five mg (1.0×10^-5 moles) of the biotin HNSA ester was dissolved in 0.5 ml of the polylysine solution. The mixture was stirred at room temperature to initiate reaction. Ten μl aliquots were removed from the incubating solution at timed intervals and were each diluted into 1.0 ml of 0.01M phosphate buffer at pH 7.0. The spectrum of each diluted aliquot was measured and the absorbance at 406 nm recorded.

[3] = system: bovine serum albumin; conditions: pH 8.5; vs same ester of N-hydroxysuccinimide; cited from earlier work
[4] = system: sheep red blood cells (SRBC); experiment: Labelling of sheep red blood cells, Coulter EPICS V Cytofluorometer; format: cell-based; conditions: excitation at 360 nm
Method: Dansyl-sac-HNSA ester was prepared as described in Example 1A using molar equivalents of HNSA, dicyclohexylcarbodiimide and dansyl-ε-aminocaproic acid (from Sigma Chemicals). For use in coupling to sheep red blood cells (SRBC) the dansyl-sac-HNSA ester (50 mg) was prepared in 7 ml of 0.28M cacodylate buffer, pH 6.9.
Sheep red blood cells were washed 4 times (400×g. 8 minutes) in G-PBS buffer (5% α-D-glucose w/v in PBSCa-Mg). To 1 ml of packed red blood cells was added the 7 ml of dansyl-sac-HNSA ester dropwise with gentle mixing for 10 minutes at room temperature. The reaction was done in foil-wrapped glassware to protect against photodecomposition. Following the reaction the cells were washed in cold G-PBS buffer containing 1% heat inactivated (56° C., 30 minutes) FCS (fetal calf serum) until the supernatants were colorless (a minimum of 4 washes).
The dansyl-sac-HNSA labelled SRBC were monitored using a Coulter EPICS V Cytofluorometer immediately after labeling and at 24 hours. […] This translates to an increase in intensity 720 times over unlabeled cells.

[5] = system: bovine serum albumin (BSA); conditions: for Concentration of Ester: diluted aliquot
Method: A total of 22 mg ([…]) of BSA (of molecular weight 66,296) was dissolved in 2.0 ml of 0.01M phoshate buffer at pH 7.5 to yield a total amino concentration of 1.0×10^-2 moles per liter (assuming 59 lysines/BSA molecule). A calculated amount mg. […] The reaction was carried out at room temperature. […]
It was found at 15 minutes of reaction time that 2.6×10^-3 moles/1 of the ester had reacted and thus 25.9% of the 59 ε-amino groups of BSA were presumably substituted. Thus, the product contained 16 mal-sac groups per molecule.

[6] = system: Horseradish peroxidase (HRP); conditions: over a 30 minute period; pH 7.0, room temperature
[7] = system: avidin
Method: A total of 220 μl of an aqueous solution of 4.65 mg of avidin per ml of solution (27 amino groups per avidin molecule) was charged to a siliconized glass tube with a stir bar. Approximately 1.5 mg of the mal-sac HNSA ester of Example 1A (of 88.5% purity), calculated from the data of Example 2A, was added and the mixture stirred at room temperature. Ten μl aliquots of the mixture were removed and added to 1.0 ml of 10 mM phosphate buffer at pH 7.0 at timed intervals. The spectrum of each aliquot was taken and then 50 μl of 4.8N NaOH solution was added to each aliquot and the spectrum was retaken.

[8] = system: biotinylated polylysine; experiment: Coupling of mal-sac-HNSA to biotinylated polylysine, then to HRP-SH; conditions: over a 30 minute period; pH 7.4, room temperature
Method: Biotinylated Polylysine (0.6 ml; 73,000 D average mol. wt.) was adjusted to pH 7.4 with 0.015 ml of 2.5N NaOH. Approximately 5 mg of mal-sac-HNSA was added to the biotinylated polylysine and stirred at room temperature. Ten μl aliquots were removed from the mixture at timed intervals and diluted into 1.0 ml of 0.01M phosphate buffer at pH 7.0. The spectrum of each diluted aliquot was measured and the absorbance at 406 nm recorded. A total of 50 μl of 4.8N NaOH solution was then added to each aliquot, mixed, and the spectrum retaken.
After 30 minutes of incubation time, the reaction was stopped using a Sephadex G-25 column, and the high molecular weight (biotin)4-polylysine-(sac-mal)18 was well separated from excess HNSA and unreacted mal-sac-HNSA.

[9] = Stability in water and on storage; format: physicochemical; conditions: no nucleophiles added
[10] = format: physicochemical; conditions: 50 μl of 4.8N NaOH added to aliquot in 1 ml pH 7.0 buffer
Method: About 0.5 mg of the purified mal-sac HNSA ester from Example IA was dissolved in 1 ml of distilled water.
The difference between the post-base and initial free HNSA concentration represents the concentration of ester. From the actual concentration of ester the amount of ester to be added to the protein solution to achieve the desired degree of substitution can be calculated.

[11] = Solubility in water; format: physicochemical
[12] = system: streptavidin; set-up: species or system Streptomyces avidinii; conditions: over the period measured; pH 7.4, room temperature
Method: A total of 0.26 mg (4.3×10^-3 μmoles) of streptavidin purified from Streptomyces avidinii by the method of Hoffman et al., PNAS. 77, 4666-4668 (1980) was dissolved in 1.0 ml of phosphate buffered saline at pH 7.4 to yield a total amine concentration of 6.93×10^-5 M (16NH2 /streptavidin). […] Good separation was achieved between the protein and the excess HNSA and unreacted HNSA ester. […] In this case 79% of the amino groups on streptavidin (12.9 out of 16.0) reacted.

O=C1N[C@H]2[C@H](CS[C@H]2CCCCC(=O)Oc2ccc(S(=O)(=O)O)cc2[N+](=O)[O-])N1 [Biotin-HNSA Ester]
increase in fluorescence [1]: much larger increase in fluorescence
reaction rate [2]: essentially linear

O=C(CCCCCNc1ccc([N+](=O)[O-])cc1[N+](=O)[O-])Oc1ccc(S(=O)(=O)O)cc1[N+](=O)[O-] [N-2,4-dinitrophenyl-6-aminocaproic acid ester of HNSA]
conjugation efficiency [3]: more efficient than the same ester of N-hydroxysuccinimide

CN(C)c1cccc2c(S(=O)(=O)NCCCCCC(=O)Oc3ccc(S(=O)(=O)O)cc3[N+](=O)[O-])cccc12 [dansyl-sac-HNSA]
increase in fluorescence intensity over unlabeled cells [4]: 720 times

O=C(CCCCCN1C(=O)C=CC1=O)Oc1ccc(S(=O)(=O)O)cc1[N+](=O)[O-] [mal-sac-HNSA, N-maleimido-6-aminocaproylHNSA]
Concentration of Ester ([5]; 0 minutes): 1.56 × 10^-4 moles/1
Concentration of Ester ([5]; 5 minutes): 1.16 × 10^-4 moles/1
Concentration of Ester ([5]; 9 minutes): 1.03 × 10^-4 moles/1
Concentration of Ester ([5]; 14 minutes): 1.11 × 10^-4 moles/1
ester reacted ([5]; 15 minutes of reaction time): 2.6×10^-3 moles/1
reaction rate [6]: essentially linear
Percent Ester Remaining ([7]; 10 minutes, room temperature): 81%
reaction rate ([7]; 30 minutes, FIG. 3): linear
reaction rate [8]: essentially linear
stability in water [9]: stable in water for several hours
hydrolysis by hydroxide [10]: rapidly hydrolyzed
solubility in water [11]: dissolve fully in water
reaction rate [12]: essentially linear
